Measured values reported in patent US6653478B2, “Substituted benzimidazol-2-ones as vasopressin receptor antagonists and neuropeptide Y modulators” (Ortho-McNeil Pharmaceutical, Inc., priority 2000, dated 2003).

Assays:
NPY2 receptors = molecular target: T1, NPY2 receptors (Homo sapiens, UniProt P49146); experiment: Neuropeptide Y receptor binding assay (125I-PYY, KAN-TS cell membranes); conditions: 10 μM compound; for inhibition at 10 µM: read-out: NPY-2@10, % Inh
T1 construct: Cell Membranes from KAN-TS cells having NPY2 receptors; endogenous in cells; host or cells: KAN-TS cells (membranes)
T1 sequence (P49146 1-381): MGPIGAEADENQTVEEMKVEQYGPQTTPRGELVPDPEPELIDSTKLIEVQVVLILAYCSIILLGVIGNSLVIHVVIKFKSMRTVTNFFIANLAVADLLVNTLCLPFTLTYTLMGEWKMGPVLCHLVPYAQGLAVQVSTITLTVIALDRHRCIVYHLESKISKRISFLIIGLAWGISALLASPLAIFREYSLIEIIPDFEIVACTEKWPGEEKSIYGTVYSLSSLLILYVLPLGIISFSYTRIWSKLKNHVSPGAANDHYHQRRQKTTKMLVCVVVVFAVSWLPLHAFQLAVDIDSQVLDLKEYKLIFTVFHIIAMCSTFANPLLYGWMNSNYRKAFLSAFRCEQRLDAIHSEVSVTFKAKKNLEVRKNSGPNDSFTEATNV
Experimental: Neuropeptide Y Receptor Binding Assay
Load 96-well RIA racks with RIA vials (Sarstedt, cat. #73.1055)
Prepare membranes—use 2×15 cm confluent plates/96-well assay plate
Add 14 mls Homogenization buffer/cell pellet
Homogenize at high speed for 15 seconds
Transfer to 15 ml conical tube and spin 5′ at 4° C. at setting 3 in RT6000 centrifuge
Transfer supernatant to 30 ml Corex tube
Balance and spin 25′ at 15,000 rpm at 4° C.
Resuspend pellet in 10 mls Binding buffer
Homogenize at high speed for 15 sec.
Bring volume up to 50 mls in Binding buffer (25 mls/2×96-well plates)
Keep on ice until use or freeze in aliquots (2 plates/tube) in −70° C.
Prepare ^125I-PYY (for 2×96-well compound plates)
Dilute 50 uCi ^125I-PYY in 1 ml H2O
Add 0.4 ml 10% BSA to 20 ml Binding buffer
Add 150 μl ^125I-PYY, mix well
NSB (1 μM PYY final conc.): 40 μl PYY (100 μM stock)+60 μl 30% DMSO in HEPES=40 μM PYY—add 5 μl/well
Total Binding: Add 5 μl/well of Compound Diluent
Add 5 μl compound (final conc. @10 μM)
Incubate at R.T. for 1 hr.
Spin plates for 10′ at setting 9 in RT6000 centrifuge
Aspirate supernatant from tubes, add 300 μl PBS and aspirate again.
After plates are washed and aspirated, put individual tubes in 12×75 mm polypropylene carrier tubes. Count on gamma counter.

human V2 receptor = human V2 receptor (Homo sapiens, UniProt P30518); experiment: V2 binding assay (3H-AVP displacement, HEK-293 membranes); set-up: expressed in transfected cells; host or cells: HEK-293 (membranes); conditions: 1.0 μM compound; for inhibition at 1 µM: read-out: V2@1.0, % Inh
Chain of human V2 receptor (P30518 whole entry): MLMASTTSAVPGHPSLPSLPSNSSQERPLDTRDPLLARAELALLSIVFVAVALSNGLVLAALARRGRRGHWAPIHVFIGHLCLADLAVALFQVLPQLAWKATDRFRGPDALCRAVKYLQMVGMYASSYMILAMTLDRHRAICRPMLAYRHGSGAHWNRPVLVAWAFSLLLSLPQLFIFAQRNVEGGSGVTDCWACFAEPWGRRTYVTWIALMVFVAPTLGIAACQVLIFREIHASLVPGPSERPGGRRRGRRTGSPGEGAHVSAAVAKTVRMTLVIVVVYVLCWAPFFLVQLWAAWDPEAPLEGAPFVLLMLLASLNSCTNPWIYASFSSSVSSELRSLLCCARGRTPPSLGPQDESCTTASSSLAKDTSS
Experimental: (§1) V1a, V1b or V2 Binding Assay
(§2) Receptor binding studies were performed using recombinant human V1a, V1b or V2 receptors. Cellular membranes were harvested from HEK-293 cells transfected to express either the V1a, V1b or V2 receptors. Compounds were evaluated for their ability to displace ^3H-arginine vasopressin (^3H-AVP; specific activity 40-87 Ci/mmol; NEN Life Sciences, Boston, Mass.). Compounds were solubilized in dimethylsulfoxide (DMSO) and diluted to working concentration of 10% DMSO with assay buffer (50 mM Tris, 5 mM MgCl2, 0.1% BSA, pH 7.5). Assay buffer was supplemented with several protease inhibitors (1 mM Pefabloc, 5 μg/ml aprotinin/leupeptin/pepstatin A, 50 μg/ml bacitracin; Sigma Chemical, St. Louis, Mo.). Non-specific binding was determined using 1.25 μM arginine vasopressin (AVP; Peninsula Labs, Belmont, Calif.). Assay reagents and test compounds were added to 96-well round bottom polypropylene plates (145 μl buffer, 5 μl compound in 10% DMSO, 25 μl buffer containing 10,000 cpm tracer, 25 μl cell membrane). After incubation for 1 hour at room temperature, the well contents were aspirated across a Unifilter GF/C plate (Packard Instrument, Downers Grove, Ill.) which had been presoaked in 0.3% polyethyleneimine to prevent peptide sticking. The wells were washed repeatedly with cold saline containing 0.05% Tween 20. The plate was then dried and 25 μl Microscint-20 cocktail (Packard Instruments) added to each well. The plates were sealed and counted on a TopCount scintillation counter (Packard Instruments) using quench correction.

human V1b receptor = molecular target: T2, human V1b receptor (Homo sapiens, UniProt P47901); experiment: V1b binding assay (3H-AVP displacement, HEK-293 membranes); set-up: expressed in transfected cells; host or cells: HEK-293 (membranes); conditions: 10 μM compound; for inhibition at 10 µM: read-out: V1b % Inh @10
T2 sequence (P47901 1-424): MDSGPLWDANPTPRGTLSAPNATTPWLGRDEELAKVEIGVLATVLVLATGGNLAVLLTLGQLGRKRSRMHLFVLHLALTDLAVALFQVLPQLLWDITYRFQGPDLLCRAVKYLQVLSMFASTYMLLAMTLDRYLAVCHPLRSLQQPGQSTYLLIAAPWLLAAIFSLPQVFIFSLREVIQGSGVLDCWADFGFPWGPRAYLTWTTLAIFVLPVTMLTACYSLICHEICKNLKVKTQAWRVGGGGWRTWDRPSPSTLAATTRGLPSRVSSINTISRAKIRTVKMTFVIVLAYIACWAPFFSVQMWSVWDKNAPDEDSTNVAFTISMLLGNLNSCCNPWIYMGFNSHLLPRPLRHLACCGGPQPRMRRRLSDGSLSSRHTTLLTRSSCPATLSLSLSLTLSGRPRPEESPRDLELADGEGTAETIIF
Experimental: as §1, §2

human V1a receptor = human V1a receptor (Homo sapiens, UniProt P37288); experiment: V1a binding assay (3H-AVP displacement, HEK-293 membranes); set-up: expressed in transfected cells; host or cells: HEK-293 (membranes); conditions: for inhibition at 1 µM: read-out: V1a@1.0, % Inh
Chain of human V1a receptor (P37288 whole entry): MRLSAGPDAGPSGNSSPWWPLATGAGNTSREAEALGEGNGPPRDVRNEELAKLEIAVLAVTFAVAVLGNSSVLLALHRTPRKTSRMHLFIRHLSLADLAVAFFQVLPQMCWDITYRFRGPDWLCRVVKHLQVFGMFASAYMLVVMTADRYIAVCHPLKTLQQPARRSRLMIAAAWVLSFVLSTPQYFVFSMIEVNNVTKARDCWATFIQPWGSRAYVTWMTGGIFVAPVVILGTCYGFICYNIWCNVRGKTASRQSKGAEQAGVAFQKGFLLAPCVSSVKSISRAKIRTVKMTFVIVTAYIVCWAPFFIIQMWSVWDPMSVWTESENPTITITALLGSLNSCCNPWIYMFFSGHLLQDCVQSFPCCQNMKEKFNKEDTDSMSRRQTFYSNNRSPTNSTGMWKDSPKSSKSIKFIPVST
Experimental: as §1, §2

| SMILES | inhibition at 10 µM (NPY2 receptors) | inhibition at 1 µM (human V2 receptor) | inhibition at 10 µM (human V1b receptor) | IC50 (human V1a receptor) | NPY-2@10, % Inh (NPY2 receptors) | V2@1.0, % Inh (human V2 receptor) | V1b % Inh @10 (human V1b receptor) | V1a@1.0, % Inh (human V1a receptor; 1.0 μM compound) | inhibition at 1 µM (human V1a receptor; 1.0 μM compound) | inhibition at 10 µM (human V1a receptor; 10 μM compound, read-out: V1a % Inh @10) |
| --- | --- | --- | --- | --- | --- | --- | --- | --- | --- | --- |
| CC(NC(=O)N1CCC(n2c(=O)[nH]c3ccccc32)CC1)c1cccc2ccccc12 (stereo in doubt) [Compound 7] | 13% | 31% | 11% | 9200 nM | – | – | – | – | – | – |
| O=c1[nH]c2ccccc2n1C1CCN(C(=S)NC(c2ccccc2)c2ccccc2)CC1 [Compound 1, 1-[(N1-Piperidinocarbothioyldiphenylmethylamino)-4-yl]-1,3-dihydro-benzimidazol-2-one] | 52% | 38% | 0% | 590 nM | – | – | – | – | – | – |
| COc1ccccc1NC(=S)N1CCC(n2c(=O)[nH]c3ccccc32)CC1 [Compound 4, 1-[N1-Piperidinocarbothioyl-(2-methoxyphenyl)amino-4-yl]-1,3-dihydro-benzimidazol-2-one] | – | – | – | – | 6% | 0% | 0%@10 | 0% | – | – |
| COc1cc(NC(=S)N2CCC(n3c(=O)[nH]c4ccccc43)CC2)cc(OC)c1OC [Compound 6] | 16% | 9% | 0% | – | – | – | – | – | 20% | – |
| O=C(NC(=S)N1CCC(n2c(=O)[nH]c3ccccc32)CC1)c1ccccc1 [Compound 8] | 5% | 10% | 13% | – | – | – | – | – | 55% | – |
| Cn1c(=O)n(C2CCN(C(=S)NC(c3ccccc3)c3ccccc3)CC2)c2ccccc21 [Compound 10, 3-Methyl-1-[(N1-Piperidinocarbothioyldiphenylmethylamino)-4-yl]-1,3-dihydro-benzimidazol-2-one] | 34% | 51% | – | 380 nM | – | – | – | – | – | – |
| O=c1[nH]c2ccccc2n1C1CCN(C(=S)NCc2ccccc2)CC1 [Compound 11] | 26% | 3% | 0% | 3100 nM | – | – | – | – | – | – |
| COc1ccccc1CNC(=S)N1CCC(n2c(=O)[nH]c3ccccc32)CC1 [Compound 14] | 18% | 1% | 0% | – | – | – | – | – | 0% | – |
| O=c1[nH]c2ccccc2n1C1CCN(C(=S)NCc2cccc3ccccc23)CC1 [Compound 15] | 14% | 10% | 7% | – | – | – | – | – | 17% | – |
| O=c1[nH]c2ccccc2n1C1CCN(C(=S)NCc2ccc3c(c2)OCO3)CC1 [Compound 16] | 15% | 0% | 15% | – | – | – | – | – | 40% | – |
| O=c1[nH]c2ccccc2n1C1CCN(C(=S)NCc2ccc(Cl)cc2Cl)CC1 [Compound 17] | 15% | 14% | 7% | – | – | – | – | – | 12% | – |
| COc1cccc(CNC(=S)N2CCC(n3c(=O)[nH]c4ccccc43)CC2)c1OC [Compound 18] | 10% | 9% | 3% | – | – | – | – | – | 22% | – |
| O=c1n(CCN2CCOCC2)c2ccccc2n1C1CCN(C(=S)NC(c2ccccc2)c2ccccc2)CC1 [Compound 19, 1-[(N1-Piperidinocarbothioyldiphenylmethylamino)-4-yl]-3-(2-N-morpholinoethyl)-1,3-dihydro-benzimidazol-2-one] | 69% | 42% | – | 270 nM | – | – | – | – | – | – |
| COc1cc(CNC(=S)N2CCC(n3c(=O)[nH]c4ccccc43)CC2)cc(OC)c1OC [Compound 20] | 12% | 0% | 0% | – | – | – | – | – | – | 25% |
| CCc1ccc(CCNC(=S)N2CCC(n3c(=O)[nH]c4ccccc43)CC2)cc1 [Compound 21] | 13% | 19% | – | – | – | – | – | – | 31% | – |
| O=c1[nH]c2ccccc2n1C1CCN(C(=S)NCCc2ccccc2)CC1 [Compound 22] | 11% | 4% | 0% | – | – | – | – | – | 45% | – |
| O=c1[nH]c2ccccc2n1C1CCN(C(=S)NCCc2cccc(Cl)c2)CC1 [Compound 23] | 15% | 12% | 0% | – | – | – | – | – | 56% | – |
| CN(C)c1ccc(CNC(=S)N2CCC(n3c(=O)[nH]c4ccccc43)CC2)cc1 [Compound 24] | 12% | 9% | 0% | – | – | – | – | – | 19% | – |
| O=c1[nH]c2ccccc2n1C1CCN(C(=S)NC(c2ccccc2)(c2ccccc2)c2ccccc2)CC1 [Compound 25, 1-[(N1-Piperidinocarbothioyltriphenylmethylamino)-4-yl]-1,3-dihydro-benzimidazol-2-one] | 13% | 0% | 0% | – | – | – | – | – | 0% | – |
| O=c1[nH]c2ccccc2n1C1CCN(C(=S)NCCN2CCOCC2)CC1 [Compound 26] | 10% | 20% | 0% | – | – | – | – | – | 33% | – |
| CC(NC(=S)N1CCC(n2c(=O)[nH]c3ccccc32)CC1)c1ccc(F)cc1 (stereo not shown) [Compound 27] | 15% | 20% | 0% | – | – | – | – | – | 33% | – |
| O=c1[nH]c2ccccc2n1C1CCN(C(=S)NCc2ccc(Cl)cc2)CC1 [Compound 28] | 24% | 0% | 3% | – | – | – | – | – | 22% | – |
| O=C(O)C(Cc1ccccc1)NC(=S)N1CCC(n2c(=O)[nH]c3ccccc32)CC1 (stereo not shown) [Compound 41] | 11% | 0% | – | – | – | – | – | – | 8% | – |
| CN1CCN(C(=O)C(Cc2ccccc2)NC(=S)N2CCC(n3c(=O)[nH]c4ccccc43)CC2)CC1 (stereo not shown) [Compound 45] | 15% | 9% | – | – | – | – | – | – | 54% | – |
| COC(=O)C(Cc1ccccc1)NC(=S)N1CCC(n2c(=O)n(CCCNC(=O)OCc3ccccc3)c3ccccc32)CC1 (stereo not shown) [Compound 52] | 11% | – | 13% | 580 nM | – | – | – | – | – | – |
